By pKd is commonly meant the negative decadic logarithm of the Kd, by convention in mol/L. As usually defined, the kon is the second-order rate constant of association. Usually koff stands for the first-order rate constant of dissociation.

Results on three compounds are retold here after PMC5559315 (Biochimie, 2017).

Experiment [1] deals with ferrous So H-NOX. As to the kind of experiment: Stopped-flow binding kinetics of gaseous ligands to ferrous So H-NOX. Further details: species or system Shewanella oneidensis. Particulars: for kon: ferrous So H-NOX, room temperature, anaerobic, CO: 6c CO-heme-His complex.
Experiment [2] has as its target Cb H-NOX. The note with it: ref [11], cited from earlier work.
The target in experiment [3] is Ns H-NOX. The note with it: cited from earlier work; for pKd / koff / kon: ref [10],[18].
The target in experiment [4] is Tt H-NOX. Particulars: ref [11], cited from earlier work; for pKd / koff / kon: NO: 6c NO-heme-His complex.
For experiment [5], the target named is Vc H-NOX. Particulars: ref [9], cited from earlier work.
The target in experiment [6] is soluble guanylyl cyclase (sGC). Particulars: cited from earlier work; for pKd / koff / kon: ref [18].
Experiment [7] addresses full length sGC from Manduca sexta (Ms sGC). Particulars: read-out: KD(CO), ref [27]; cited from earlier work.
The target in experiment [8] is Ms sGC NT2. The note with it: read-out: KD(CO); Ms sGC NT2, lacking 48 residues from α-subunit N-terminus and the catalytic domains; ref [27]; cited from earlier work.
Experiment [9] addresses β H-NOX/PAS subunit of Ms sGC. The note with it: read-out: KD(CO); β H-NOX/PAS subunit alone; ref [27]; cited from earlier work.
The test system of experiment [10] is Vc H-NOX. Description: Gaseous ligand binding kinetics of Vc H-NOX. The note with it: reacted with 600 µM O2; data not shown. Further details: species or system Vibrio cholera.
The mark [11] stands for this setting: calculated as koff/kon, NO: 6c NO-heme-His complex.
Setting [12] is: NO: 6c NO-heme-His complex, O2: high pressure cell.
Where [13] appears, read: O2, estimated based on the sliding scale rule.
The mark [14] stands for this setting: Intermediate NO-heme--NO(−-His), estimated based on computer simulations.

pKd: −log10 of the molar value. Entries after “also recorded” stand apart in the source; their conditions may differ. Where two headings read alike, the source gives them in different places.

Consider `[C-]#[O+]` [CO, carbon monoxide], for which the pKd in [1] (setting [11]) was 6.07; in [2] (NO: 6c NO-heme-His complex) it was 6.17; in [3] (setting [12]), 5.85; in experiment [4] it was 6.80; in experiment [5] (NO: 6c NO-heme-His complex), 6.11; in [6] (NO: 6c NO-heme-His complex) it was 3.59. Also, the values for the pKd in experiment [7], in [8] and in experiment [9] were 4.00 to 4.30, 4.00 to 4.30 and 6.70, respectively. In addition, the kon was 820000 M⁻¹ s⁻¹ in [1] (NO: 6c NO-heme-His complex); 1.5e+06 M⁻¹ s⁻¹ in [2] (NO: 6c NO-heme-His complex); 3e+06 M⁻¹ s⁻¹ in experiment [3] (NO: 6c NO-heme-His complex); 3.3e+06 M⁻¹ s⁻¹ in [4]; 1.1e+06 M⁻¹ s⁻¹ in experiment [5] (NO: 6c NO-heme-His complex); 40000 M⁻¹ s⁻¹ in [6] (NO: 6c NO-heme-His complex). Besides, the koff in experiment [2] (NO: 6c NO-heme-His complex) is 1.0 s⁻¹; in experiment [3] (NO: 6c NO-heme-His complex) it was 3.6 s⁻¹; in experiment [4], 0.5 s⁻¹; in [5] (NO: 6c NO-heme-His complex), 0.85 s⁻¹; in experiment [6] (NO: 6c NO-heme-His complex), 10.7 s⁻¹.
On to `O=O` [O2], for which the O2 binding entry in experiment [1] (O2-saturated buffer, final [O2] = 600 µM, no oxyferrous intermediate) is listed as “does not bind O2”. Besides, the pKd in experiment [1] (setting [13]) was about 2.35; in [2] (NO: 6c NO-heme-His complex) it was 4.28; in experiment [3] (setting [12]), 1.89; in experiment [4] it was 7.36; in [5] (setting [13]), about 2.89. The autoxidation rate is ~ 4 × 10^−3 s^−1 in [10], 0.02 s⁻¹ in experiment [2] (reacted with 600 µM O2) and 1.4e-05 s⁻¹ in [3] (ref [10]). Moreover, in [4], the koff is 1.9 s⁻¹. Moreover, the kon in [4] was 4.3e+07 M⁻¹ s⁻¹. Also, the “autoxidation of oxyferrous heme” value in experiment [4] was “no autoxidation is observed”.
Take nitric oxide [NO]: the “koff,5c(NO)” value in [1] (5c heme-NO complex, CO displacement method) was determined as 0.0013 s⁻¹. Also, in experiment [1] (Intermediate NO-heme--NO(−-His), y-intercept of secondary plot), the “koff, dissociation rate of NO from the quaternary intermediate” value is “very small; also recorded: small”. The pKd was 9.82 in experiment [1] (setting [11]); 10.10 in [2] (NO: 6c NO-heme-His complex); 11.14 in experiment [2] (read-out: KD(NO)(apparent), 5c heme-NO complex); 6.10 in experiment [3] (2nd 6c NO-heme-His complex); 9.77 in experiment [3] (setting [12]); 10.64 in experiment [4]. Further, the pKd in experiment [5] (NO: 6c NO-heme-His complex) was 9.57; in experiment [6] (NO: 6c NO-heme-His complex), 7.27. The kon in experiment [1] (NO: 6c NO-heme-His complex) is 1.5e+09 M⁻¹ s⁻¹; in [2] (setting [14]) it was 1.8 × 10^7 ^‡ M^−1s^−1; in experiment [2] (NO: 6c NO-heme-His complex), 1.5e+08 M⁻¹ s⁻¹; in experiment [3] (2nd 6c NO-heme-His complex), 2.4e+06 M⁻¹ s⁻¹; in experiment [3] (NO: 6c NO-heme-His complex) it was 3e+08 M⁻¹ s⁻¹; in experiment [4] it was 1.5e+08 M⁻¹ s⁻¹. For the same compound, the kon was 2.5 × 10^7 ^‡ M^−1s^−1 in experiment [5] (setting [14]), 1.1e+09 M⁻¹ s⁻¹ in [5] (NO: 6c NO-heme-His complex) and 1.4e+08 M⁻¹ s⁻¹ in experiment [6] (NO: 6c NO-heme-His complex). Further, the “formation rate of the 5c heme-NO complex (D → E)” value in experiment [1] (not measured directly, significantly faster than kobs at 30 µM NO) was over 600 s⁻¹. Moreover, the koff in [2] (5c heme-NO complex) is 0.0011 s⁻¹; in experiment [2] (NO: 6c NO-heme-His complex), 0.012 s⁻¹; in [3] (2nd 6c NO-heme-His complex) it was 1.9 s⁻¹; in experiment [3] (NO: 6c NO-heme-His complex) it was 0.05 s⁻¹; in experiment [4], 0.0034 s⁻¹; in experiment [5] (5c heme-NO complex), 10^−3 – 10^−2 s^−1. The koff in experiment [5] (setting [14]) is 4.5 × 10^3 ^‡ s^−1; in [5] (NO: 6c NO-heme-His complex), 0.3 s⁻¹; in experiment [6] (5c heme-NO complex), 10^−4 – 10^−3 s^−1; in [6] (Intermediate NO-heme--NO(−-His)), 26 s⁻¹; in [6] (NO: 6c NO-heme-His complex), 27 s⁻¹. In addition, the “conversion rate from 6c NO complex to 5c NO-heme complex” value in experiment [6] (ref [23]) is 8.5 s⁻¹.
